Assays:
Type in all cases: biochemical
[1] = biological target: T1, CYP3A4 (Homo sapiens, UniProt P08684); assay: IC50 vs CYP3A by inhibition of lopinavir metabolism in human liver microsomes; design: 0.01 mg/mL protein human liver microsomes (BD Gentest); tissue BD Gentest; host or cells: human liver microsomes; conditions: 1.5 μM lopinavir, 0.01 mg/mL human liver microsomes, 8 min at 37° C.; read-out: CYP IC50 (nM) 3A4 (LPV)
Method in brief: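 Human liver microsomes (0.01 mg/mL) with 1.5 μM lopinavir, 1 mM NADPH, 3.3 mM MgCl2 in 100 mM potassium phosphate pH 7.4, 8 min at 37 °C, six compound concentrations. Summed M2/M3/M4 hydroxy metabolites quantified by LC/MS/MS against tolbutamide; % inhibition normalised between no-inhibitor and 5 μM ketoconazole controls, IC50 by non-linear regression.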
Target sequence in this assay (P08684 2-503): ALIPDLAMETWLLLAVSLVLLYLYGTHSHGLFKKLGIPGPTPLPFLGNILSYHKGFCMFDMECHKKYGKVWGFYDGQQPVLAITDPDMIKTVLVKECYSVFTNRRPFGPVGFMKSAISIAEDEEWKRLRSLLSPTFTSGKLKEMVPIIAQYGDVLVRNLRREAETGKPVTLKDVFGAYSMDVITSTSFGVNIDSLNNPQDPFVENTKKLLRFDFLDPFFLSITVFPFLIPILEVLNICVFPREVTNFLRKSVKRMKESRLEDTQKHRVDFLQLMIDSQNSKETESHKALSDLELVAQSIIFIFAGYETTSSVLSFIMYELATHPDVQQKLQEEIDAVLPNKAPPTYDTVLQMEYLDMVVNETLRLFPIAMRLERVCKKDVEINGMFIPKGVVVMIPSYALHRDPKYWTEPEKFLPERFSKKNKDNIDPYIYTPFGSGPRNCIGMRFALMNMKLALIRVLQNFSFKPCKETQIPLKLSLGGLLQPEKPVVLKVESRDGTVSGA

[2] = biological target: T2, CYP2D6 (Homo sapiens, UniProt P10635); assay: Cocktail assay for CYPs, dextromethorphan O-demethylation (CYP2D6), human liver microsomes; conditions: 5 μM dextromethorphan, 0.1 mg/mL human liver microsomes, 10 min at 37° C.; read-out: CYP IC50 (nM) 2D6
T2 construct: 0.1 mg/mL protein human liver microsomes (BD Gentest); tissue BD Gentest; host or cells: human liver microsomes
Method in brief: (§1)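 Pooled human liver microsomes (0.1 mg/mL) with a probe cocktail of 10 μM phenacetin, 5 μM dextromethorphan and 2 μM midazolam plus NADPH, pH 7.4, 10 min at 37° C. Each metabolite was quantified by LC/MS/MS against a tolbutamide internal standard. IC50 came from % inhibition at 6 concentrations (e.g. 0.0032–10 μM) by non-linear regression.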

[3] = biological target: T3, CYP1A2 (Homo sapiens, UniProt P05177); assay: Cocktail assay for CYPs, phenacetin O-deethylation (CYP1A2), human liver microsomes; conditions: 10 μM phenacetin, 0.1 mg/mL human liver microsomes, 10 min at 37° C.; read-out: CYP IC50 (nM) 1A2
T3 construct: 0.1 mg/mL protein human liver microsomes (BD Gentest); tissue BD Gentest; host or cells: human liver microsomes
T3 sequence (P05177 1-516): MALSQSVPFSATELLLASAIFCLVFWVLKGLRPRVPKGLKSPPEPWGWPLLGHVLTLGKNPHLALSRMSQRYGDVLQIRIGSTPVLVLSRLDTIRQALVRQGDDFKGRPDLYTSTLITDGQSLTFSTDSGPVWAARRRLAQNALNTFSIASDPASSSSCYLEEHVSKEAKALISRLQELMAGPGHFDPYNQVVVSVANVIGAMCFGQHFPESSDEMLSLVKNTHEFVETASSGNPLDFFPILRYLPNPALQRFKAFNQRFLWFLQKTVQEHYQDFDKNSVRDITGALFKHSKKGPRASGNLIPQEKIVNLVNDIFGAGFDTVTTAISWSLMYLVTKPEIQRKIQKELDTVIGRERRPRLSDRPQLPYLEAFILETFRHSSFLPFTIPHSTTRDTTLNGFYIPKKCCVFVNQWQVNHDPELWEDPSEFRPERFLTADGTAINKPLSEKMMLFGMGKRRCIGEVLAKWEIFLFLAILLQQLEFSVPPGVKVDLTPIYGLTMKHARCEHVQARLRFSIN
Method in brief: as §1

[4] = biological target: T1, CYP3A4; assay: Cocktail assay for CYPs, midazolam 1′-hydroxylation (CYP3A4), human liver microsomes; design: 0.1 mg/mL protein human liver microsomes (BD Gentest); tissue BD Gentest; host or cells: human liver microsomes; conditions: 2 μM midazolam, 0.1 mg/mL human liver microsomes, 10 min at 37° C.; read-out: CYP IC50 (nM) 3A4 (MDZ)
Method in brief: as §1
Target sequence in this assay (P08684 whole entry): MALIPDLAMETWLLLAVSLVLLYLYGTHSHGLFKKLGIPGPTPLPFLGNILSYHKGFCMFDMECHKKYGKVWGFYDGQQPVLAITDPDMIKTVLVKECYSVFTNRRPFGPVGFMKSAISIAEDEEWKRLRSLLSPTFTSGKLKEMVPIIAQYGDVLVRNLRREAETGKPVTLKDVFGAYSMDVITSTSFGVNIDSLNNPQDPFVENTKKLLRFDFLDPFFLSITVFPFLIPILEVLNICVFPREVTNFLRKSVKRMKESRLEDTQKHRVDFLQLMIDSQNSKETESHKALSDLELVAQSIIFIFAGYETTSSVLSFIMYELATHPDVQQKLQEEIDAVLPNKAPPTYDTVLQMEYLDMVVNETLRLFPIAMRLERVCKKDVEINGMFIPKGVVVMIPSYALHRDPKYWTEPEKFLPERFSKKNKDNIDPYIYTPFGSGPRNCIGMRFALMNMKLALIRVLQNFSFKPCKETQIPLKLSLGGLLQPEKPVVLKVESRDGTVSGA

[5] = biological target: T4, CYP2C19 (Homo sapiens, UniProt P33261); assay: Cocktail assay for CYPs, mephenytoin 4′-hydroxylation (CYP2C19), human liver microsomes; conditions: 30 μM mephenytoin, 0.1 mg/mL human liver microsomes, 10 min at 37° C.; read-out: CYP IC50 (nM) 2C19
T4 construct: 0.1 mg/mL protein human liver microsomes (BD Gentest); tissue BD Gentest; host or cells: human liver microsomes
Method in brief: (§2)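 Pooled human liver microsomes (0.1 mg/mL) with probe cocktail incl. 5 μM diclofenac (CYP2C9) and 30 μM mephenytoin (CYP2C19), 1 mM NADPH, pH 7.4 phosphate buffer, 10 min at 37° C. Metabolites quantified by LC/MS/MS against internal standard; % inhibition versus no-inhibitor control, IC50 by non-linear regression.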

[6] = biological target: T5, CYP2C9 (Homo sapiens, UniProt P11712); assay: Cocktail assay for CYPs, diclofenac 4′-hydroxylation (CYP2C9), human liver microsomes; conditions: 5 μM diclofenac, 0.1 mg/mL human liver microsomes, 10 min at 37° C.; read-out: CYP IC50 (nM) 2C9
T5 construct: 0.1 mg/mL protein human liver microsomes (BD Gentest); tissue BD Gentest; host or cells: human liver microsomes
Method in brief: as §2

T4 sequence (P33261 whole entry): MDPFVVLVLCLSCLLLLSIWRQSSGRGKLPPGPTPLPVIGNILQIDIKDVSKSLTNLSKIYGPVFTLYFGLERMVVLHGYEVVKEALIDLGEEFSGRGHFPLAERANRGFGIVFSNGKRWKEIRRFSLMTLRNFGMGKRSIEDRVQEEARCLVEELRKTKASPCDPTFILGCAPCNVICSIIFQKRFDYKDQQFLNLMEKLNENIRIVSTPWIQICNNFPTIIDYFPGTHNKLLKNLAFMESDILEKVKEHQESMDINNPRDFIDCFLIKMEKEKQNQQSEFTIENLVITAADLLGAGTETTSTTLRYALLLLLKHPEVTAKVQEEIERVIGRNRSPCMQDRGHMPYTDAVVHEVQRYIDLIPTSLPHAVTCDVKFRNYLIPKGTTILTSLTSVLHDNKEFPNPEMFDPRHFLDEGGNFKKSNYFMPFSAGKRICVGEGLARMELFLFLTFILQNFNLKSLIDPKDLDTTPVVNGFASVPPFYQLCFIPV
T2 sequence (P10635 whole entry): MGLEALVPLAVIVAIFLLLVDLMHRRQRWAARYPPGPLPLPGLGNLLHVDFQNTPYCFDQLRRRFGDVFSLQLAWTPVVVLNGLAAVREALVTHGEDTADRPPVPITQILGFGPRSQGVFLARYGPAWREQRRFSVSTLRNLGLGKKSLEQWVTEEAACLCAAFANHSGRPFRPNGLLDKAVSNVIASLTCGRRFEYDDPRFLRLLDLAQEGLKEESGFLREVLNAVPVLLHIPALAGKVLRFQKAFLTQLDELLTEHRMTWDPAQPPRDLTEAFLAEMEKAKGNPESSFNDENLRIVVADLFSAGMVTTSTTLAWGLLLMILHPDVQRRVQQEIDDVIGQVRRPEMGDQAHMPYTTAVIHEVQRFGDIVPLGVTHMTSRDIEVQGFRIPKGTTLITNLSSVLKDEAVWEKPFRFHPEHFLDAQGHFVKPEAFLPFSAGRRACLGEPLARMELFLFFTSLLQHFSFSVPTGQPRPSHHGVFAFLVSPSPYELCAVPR
T5 sequence (P11712 whole entry): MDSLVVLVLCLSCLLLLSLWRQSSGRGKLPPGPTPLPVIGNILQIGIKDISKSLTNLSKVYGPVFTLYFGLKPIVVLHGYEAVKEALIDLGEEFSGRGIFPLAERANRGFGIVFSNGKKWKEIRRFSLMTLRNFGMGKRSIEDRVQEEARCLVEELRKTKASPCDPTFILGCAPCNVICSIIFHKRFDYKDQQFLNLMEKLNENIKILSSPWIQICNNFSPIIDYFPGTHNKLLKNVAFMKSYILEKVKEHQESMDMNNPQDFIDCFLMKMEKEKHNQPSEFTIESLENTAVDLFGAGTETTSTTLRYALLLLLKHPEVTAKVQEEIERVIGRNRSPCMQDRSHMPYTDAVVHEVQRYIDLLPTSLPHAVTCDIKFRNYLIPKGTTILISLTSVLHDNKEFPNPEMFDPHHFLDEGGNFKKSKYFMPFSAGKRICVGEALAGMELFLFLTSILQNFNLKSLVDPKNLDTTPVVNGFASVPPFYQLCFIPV

Compound | IC50 [1] [nM] | IC50 [2] [nM] | IC50 [3] [nM] | IC50 [4] [nM] | IC50 [5] [nM] | IC50 [6] [nM]
O=S(=O)(c1ccc(NCC(O)C2CC2)nc1)N1CCCC1c1ccccc1-c1cncn1CCc1ccc(F)cc1 (single isomer, unassigned) [Compound 34b, 1-cyclopropyl-2-((5-(((R or S)-2-(2-(1-(4-fluorophenethyl)-1H-imidazol-5-yl)phenyl)pyrrolidin-1-yl)sulfonyl)pyridin-2-yl)amino)ethanol] | 1 | 2420 | > 10000 | 5.5 | 4400 | 1900
O=C(c1ccc(N2CCOCC2)nc1)N1CCCC1c1ccccc1-c1cncn1CCc1ccc(F)cc1 (single isomer, unassigned) [Compound 43a, (R or S)-(2-(2-(1-(4-fluorophenethyl)-1H-imidazol-5-yl)phenyl)pyrrolidin-1-yl) (6-morpholino-pyridin-3-yl) methanone] | 35.2 | > 10000 | > 10000 | 36.3 | 3270 | > 10000
CC(C)NC(=O)N1CCCC1c1cccc(-c2cncn2CCc2ccc(F)cc2)c1 (stereo not drawn) [Compound 50, 2-(3-(1-(4-fluorophenethyl)-1H-imidazol-5-yl)phenyl)-N-isopropyl-pyrrolidine-1-carboxamide] | 14.2 | ≥ 10000 | 5750 | 9.4 | 2070 | 4180
O=S(=O)(c1ccc(N2CCOCC2)nc1)N1CCc2c(cccc2-c2cncn2CCc2ccc(F)cc2)C1 [Compound 60, 4-(5-((5-(1-(4-fluorophenethyl)-1H-imidazol-5-yl)-3,4-dihydroisoquinolin-2(1H)-yl)sulfonyl)pyridin-2-yl) morpholine] | 1.8 | 2210 | > 10000 | 6.2 | 53 | 1350
CN(C)c1ccc(S(=O)(=O)N2CCCC2c2ccccc2-c2cncn2CCc2ccc(F)cc2)cn1 (single isomer, unassigned) [Compound 28a, (R or S)-5-((2-(2-(1-(4-fluorophenethyl)-1H-imidazol-5-yl)phenyl)pyrrolidin-1-yl)sulfonyl)-N,N-dimethylpyridin-2-amine] | 0.7 | 6990 | > 10000 | 3.5 | 2390 | 1520
O=S(=O)(c1ccc(N2CCN(CCO)CC2)nc1)N1CCCC1c1ccccc1-c1cncn1CCc1ccc(F)cc1 (single isomer, unassigned) [Compound 35a, (R or S)-2-(4-(5-((2-(2-(1-(4-fluorophenethyl)-1H-imidazol-5-yl)phenyl)pyrrolidin-1-yl)sulfonyl)pyridin-2-yl)piperazin-1-yl) ethanol] | 4.2 | 4600 | > 10000 | 8.1 | > 10000 | 8600
O=C(NCc1ccc(S(=O)(=O)N2CCCC2c2cccc(-c3cncn3CCc3ccc(F)cc3)c2)s1)c1ccccc1 (single isomer, unassigned) [Compound 55b, (R or S)-N-((5-((2-(3-(1-(4-fluorophenethyl)-1H-imidazol-5-yl)phenyl)pyrrolidin-1-yl)sulfonyl)thiophen-2-yl)methyl) benzamide] | 0.92 | 163 | 158 | 5.1 | 56 | 63.8

— patent US9975888B2, “Aryl linked imidazole and triazole derivatives and methods of use thereof for improving the pharmacokinetics of a drug” (MERCK SHARP & DOHME CORP., priority 2013, dated 2018)
